Holding throughout (assay): Glasshouse assay for herbicidal activity (pre- and post-emergence), percentage phytotoxicity
What all share (assay type): in vivo

Assay [1] relates to Echinochloa crus-galli (ECHCG). To be noted: Echinochloa crus-galli, Rate 250 g/ha, 100%=total damage, 0%=no damage. The procedure:
(§1) Test—Glasshouse Assay for Herbicidal Activity
(§2) Seeds of a variety of monocotyledonous and dicotyledonous test plants are sown in standard soil in pots. The plants are cultivated for one day (for pre-emergence (PRE)) or for about 12 days (for post-emergence (POST)) under controlled conditions in a glasshouse (warm climate species at 24/18° C., cool climate species at 20/16° C., both at day/night; 16 hours light; 65% humidity).
(§3) The test plants are then grown on, in a glasshouse (greenhouse) under controlled conditions (warm climate species at 24/18° C., cool climate species at 20/16° C., both at day/night; 16 hours light; 65% humidity) and are watered twice daily. 15 days after application of the test herbicide (15 DAA) (for post-emergence), and 20 days after application of the test herbicide (20 DAA) (for pre-emergence), the test plants are evaluated visually, and an assessed percentage phytotoxicity score is given for each herbicidal application on each plant species (with 100%=total damage to plant; 0%=no damage to plant).
(§4) The plant species tested are as follows: Alopecurus myosuroides (ALOMY), Avena fatua (AVEFA), Lolium perenne (LOLPE), Echinochloa crus-galli (ECHCG).

Assay [2] concerns Alopecurus myosuroides (ALOMY). To be noted: Alopecurus myosuroides, Rate 250 g/ha, 100%=total damage, 0%=no damage. As to the method: as §1, §2, §3, §4
For a further assay, the system named is Lolium perenne (LOLPE). To be noted: Lolium perenne, Rate 250 g/ha, 100%=total damage, 0%=no damage. The procedure: as §1, §2, §3, §4
The next assay has as its system Avena fatua (AVEFA). To be noted: Avena fatua, Rate 250 g/ha, 100%=total damage, 0%=no damage. As to the method:
as §1, §2, §3, §4

The mark [3] stands for this setting: post-emergence, 360 h, post-emergence, assessed visually 15 DAA, read-out: Post-emergence herbicidal activity (percentage phytotoxicity) ECHCG POST.
[4] abbreviates: pre-emergence, 480 h, pre-emergence, assessed visually 20 DAA, read-out: Pre-emergence herbicidal activity (percentage phytotoxicity) ECHCG PRE.
[5] abbreviates: post-emergence, 360 h, post-emergence, assessed visually 15 DAA, read-out: Post-emergence herbicidal activity (percentage phytotoxicity) ALOMY POST.
The mark [6] stands for this setting: pre-emergence, 480 h, pre-emergence, assessed visually 20 DAA, read-out: Pre-emergence herbicidal activity (percentage phytotoxicity) ALOMY PRE.
Setting [7] is: post-emergence, 360 h, post-emergence, assessed visually 15 DAA, read-out: Post-emergence herbicidal activity (percentage phytotoxicity) LOLPE POST.
The mark [8] stands for this setting: pre-emergence, 480 h, pre-emergence, assessed visually 20 DAA, read-out: Pre-emergence herbicidal activity (percentage phytotoxicity) LOLPE PRE.
Setting [9] is: post-emergence, 360 h, post-emergence, assessed visually 15 DAA, read-out: Post-emergence herbicidal activity (percentage phytotoxicity) AVEFA POST.
[10] abbreviates: pre-emergence, 480 h, pre-emergence, assessed visually 20 DAA, read-out: Pre-emergence herbicidal activity (percentage phytotoxicity) AVEFA PRE.

Structures are written as SMILES. Where two headings read alike, the source gives them in different places.

For `CC#Cc1cc(C)c(C2C(=O)CC(CC(=O)NC(C)(C)C)C2=O)c(C)c1` (centres unmarked) [Compound A31], the pest or weed control at 250 g/ha (in assay [1] (setting [3]); in assay [1] (setting [4]); in assay [2] (setting [5]); in assay [2] (setting [6]); in the assay on Lolium perenne (LOLPE) (setting [7]); in the assay on Lolium perenne (LOLPE) (setting [8])) was 100% throughout. Further, the figures for the pest or weed control at 250 g/ha with Avena fatua (AVEFA) (setting [9]) and with Avena fatua (AVEFA) (setting [10]) were 100% and 90%, respectively.
With `CC#Cc1cc(C)c(C2C(=O)CC(CC(=O)NC3CC3)C2=O)c(C)c1` (centres unmarked) [Compound A32], the pest or weed control at 250 g/ha in assay [1] (setting [3]) was found to be 100%; in assay [1] (setting [4]), 100%; in assay [2] (setting [5]) it was 100%; in assay [2] (setting [6]) it was 70%; in the assay on Lolium perenne (LOLPE) (setting [7]), 100%; in the assay with Lolium perenne (LOLPE) (setting [8]) it was 90%. In addition, the figures for the pest or weed control at 250 g/ha with Avena fatua (AVEFA) (setting [9]) and in the assay with Avena fatua (AVEFA) (setting [10]) were 100% and 80%, respectively.
Consider `CC#Cc1cc(C)c(C2C(=O)CC(CC(=O)NC(C)CC)C2=O)c(C)c1` (centres unmarked) [Compound A33], for which the pest or weed control at 250 g/ha (in assay [1] (setting [3]); in assay [1] (setting [4]); in assay [2] (setting [5]); in assay [2] (setting [6]); in the assay with Lolium perenne (LOLPE) (setting [7]); in the assay with Lolium perenne (LOLPE) (setting [8])) was 100% each time. For the same molecule, the pest or weed control at 250 g/ha with Avena fatua (AVEFA) (setting [9]) and in the assay on Avena fatua (AVEFA) (setting [10]) was 100% in each case.
As for `Cc1cc(-c2ccc(F)cc2)cc(C)c1C1C(=O)CC(CC(=O)NC(C)C)C1=O` (centres unmarked) [Compound A34, 2-[3-[4-(4-fluorophenyl)-2,6-dimethyl-phenyl]-2,4-dioxo-cyclopentyl]-N-isopropyl-acetamide], the pest or weed control at 250 g/ha (in assay [1] (setting [3]); in assay [1] (setting [4]); in assay [2] (setting [5]); in assay [2] (setting [6]); in the assay with Lolium perenne (LOLPE) (setting [7]); in the assay on Lolium perenne (LOLPE) (setting [8])) was 100% throughout. Besides, the pest or weed control at 250 g/ha with Avena fatua (AVEFA) (setting [9]) and in the assay with Avena fatua (AVEFA) (setting [10]) was 100% each time.
Take `Cc1cc(-c2ccc(Cl)cc2)cc(C)c1C1C(=O)CC(CC(=O)NC(C)C)C1=O` (centres unmarked) [Compound A35]: the pest or weed control at 250 g/ha in assay [1] (setting [3]) is 100%; in assay [1] (setting [4]), 100%; in assay [2] (setting [5]) it was 90%; in assay [2] (setting [6]), 90%; in the assay on Lolium perenne (LOLPE) (setting [7]) it was 100%; in the assay on Lolium perenne (LOLPE) (setting [8]), 100%. The pest or weed control at 250 g/ha with Avena fatua (AVEFA) (setting [9]) and with Avena fatua (AVEFA) (setting [10]) was 100% each time.
As to `Cc1cc(-c2ccc(F)cc2)cc(C)c1C1C(=O)CC(CC(=O)NC(C)(C)C)C1=O` (centres unmarked) [Compound A36], the pest or weed control at 250 g/ha in assay [1] (setting [3]) was 100%; in assay [1] (setting [4]), 100%; in assay [2] (setting [5]) it was 90%; in assay [2] (setting [6]), 100%; in the assay on Lolium perenne (LOLPE) (setting [7]) it was 90%; in the assay on Lolium perenne (LOLPE) (setting [8]) it was 100%. For the same molecule, the pest or weed control at 250 g/ha with Avena fatua (AVEFA) (setting [9]) and in the assay on Avena fatua (AVEFA) (setting [10]) was 100% throughout.
In the case of `Cc1cc(-c2ccc(C#N)cc2)cc(C)c1C1C(=O)CC(CC(=O)NC(C)C)C1=O` (centres unmarked) [Compound A37], the pest or weed control at 250 g/ha in assay [1] (setting [3]) was found to be 90%; in assay [1] (setting [4]) it was 100%; in assay [2] (setting [5]), 80%; in assay [2] (setting [6]) it was 90%; in the assay on Lolium perenne (LOLPE) (setting [7]), 80%; in the assay on Lolium perenne (LOLPE) (setting [8]) it was 100%. The pest or weed control at 250 g/ha in the assay on Avena fatua (AVEFA) (setting [9]) was determined as 100%; in the assay with Avena fatua (AVEFA) (setting [10]) it was 90%.
In the case of `Cc1cc(-c2ccc(C#N)cc2F)cc(C)c1C1C(=O)CC(CC(=O)NC(C)C)C1=O` (centres unmarked) [Compound A38], the pest or weed control at 250 g/ha was 90% in assay [1] (setting [3]); 100% in assay [1] (setting [4]); 80% in assay [2] (setting [5]); 80% in assay [2] (setting [6]); 80% in the assay on Lolium perenne (LOLPE) (setting [7]); 90% with Lolium perenne (LOLPE) (setting [8]). In addition, the pest or weed control at 250 g/ha in the assay with Avena fatua (AVEFA) (setting [9]) came to 100%; in the assay on Avena fatua (AVEFA) (setting [10]), 90%.
Turning to `Cc1cc(-c2ncc(Cl)cn2)cc(C)c1C1C(=O)CC(CC(=O)NC(C)(C)C)C1=O` (centres unmarked) [Compound A40], the pest or weed control at 250 g/ha (in assay [1] (setting [3]); in assay [1] (setting [4]); in assay [2] (setting [5]); in assay [2] (setting [6]); in the assay with Lolium perenne (LOLPE) (setting [7]); in the assay with Lolium perenne (LOLPE) (setting [8])) was 100% throughout. The pest or weed control at 250 g/ha is 100% in the assay with Avena fatua (AVEFA) (setting [9]) and 90% in the assay on Avena fatua (AVEFA) (setting [10]).
In the case of `Cc1cc(-c2ccc(Cl)cn2)cc(C)c1C1C(=O)CC(CC(=O)NC(C)(C)C)C1=O` (centres unmarked) [Compound A41], the pest or weed control at 250 g/ha (in assay [1] (setting [3]); in assay [1] (setting [4]); in assay [2] (setting [5]); in assay [2] (setting [6]); in the assay on Lolium perenne (LOLPE) (setting [7]); in the assay on Lolium perenne (LOLPE) (setting [8])) was 100% throughout. The pest or weed control at 250 g/ha in the assay on Avena fatua (AVEFA) (setting [9]) came out at 100%; in the assay on Avena fatua (AVEFA) (setting [10]) it was 70%.
Regarding `C#Cc1cc(C)c(C2C(=O)CC(CC(=O)NC(C)C)C2=O)c(C)c1` (centres unmarked) [Compound A42], the pest or weed control at 250 g/ha is 80% in assay [1] (setting [3]); 100% in assay [1] (setting [4]); 100% in assay [2] (setting [5]); 100% in assay [2] (setting [6]); 90% with Lolium perenne (LOLPE) (setting [7]); 100% in the assay on Lolium perenne (LOLPE) (setting [8]). The pest or weed control at 250 g/ha in the assay with Avena fatua (AVEFA) (setting [9]) and in the assay with Avena fatua (AVEFA) (setting [10]) was 100% throughout.
On to `CCCCNC(=O)CC1CC(=O)C(c2c(C)cc(-c3ncc(Cl)cc3F)cc2C)C1=O` (centres unmarked) [Compound A44], for which the pest or weed control at 250 g/ha (in assay [1] (setting [3]); in assay [1] (setting [4]); in assay [2] (setting [5]); in assay [2] (setting [6]); in the assay on Lolium perenne (LOLPE) (setting [7]); in the assay on Lolium perenne (LOLPE) (setting [8])) was 100% each time. The pest or weed control at 250 g/ha in the assay with Avena fatua (AVEFA) (setting [9]) and with Avena fatua (AVEFA) (setting [10]) was 100% throughout.
`Cc1cc(-c2ncc(Cl)cc2F)cc(C)c1C1C(=O)CC(CC(=O)NC2CC2)C1=O` (centres unmarked) [Compound A45]: the pest or weed control at 250 g/ha (in assay [1] (setting [3]); in assay [1] (setting [4]); in assay [2] (setting [5]); in assay [2] (setting [6]); in the assay with Lolium perenne (LOLPE) (setting [7]); with Lolium perenne (LOLPE) (setting [8])) was 100% in each case. For the same molecule, the pest or weed control at 250 g/ha in the assay with Avena fatua (AVEFA) (setting [9]) and with Avena fatua (AVEFA) (setting [10]) was 100% each time.
Consider `CCC(C)(C)NC(=O)CC1CC(=O)C(c2c(C)cc(-c3ncc(Cl)cc3F)cc2C)C1=O` (centres unmarked) [Compound A46], for which the pest or weed control at 250 g/ha in assay [1] (setting [3]) was 100%; in assay [1] (setting [4]), 100%; in assay [2] (setting [5]) it was 100%; in assay [2] (setting [6]), 100%; with Lolium perenne (LOLPE) (setting [7]), 100%; in the assay on Lolium perenne (LOLPE) (setting [8]), 90%. For the same molecule, the pest or weed control at 250 g/ha in the assay with Avena fatua (AVEFA) (setting [9]) was 100%; in the assay on Avena fatua (AVEFA) (setting [10]), 90%.
`COCCNC(=O)CC1CC(=O)C(c2c(C)cc(-c3ncc(Cl)cc3F)cc2C)C1=O` (centres unmarked) [Compound A47]: the pest or weed control at 250 g/ha (in assay [1] (setting [3]); in assay [1] (setting [4]); in assay [2] (setting [5]); in assay [2] (setting [6]); in the assay on Lolium perenne (LOLPE) (setting [7]); in the assay on Lolium perenne (LOLPE) (setting [8])) was 100% each time. Further, the pest or weed control at 250 g/ha in the assay on Avena fatua (AVEFA) (setting [9]) and with Avena fatua (AVEFA) (setting [10]) was 100% in each case.
Turning to `CC#Cc1cc(C)c(C2C(=O)CC(CC(=O)NC(C)(C)C)C2=O)c(CC)c1` (centres unmarked) [Compound A48], the pest or weed control at 250 g/ha (in assay [1] (setting [3]); in assay [1] (setting [4]); in assay [2] (setting [5]); in assay [2] (setting [6]); with Lolium perenne (LOLPE) (setting [7]); with Lolium perenne (LOLPE) (setting [8])) was 100% each time. Moreover, the pest or weed control at 250 g/ha in the assay with Avena fatua (AVEFA) (setting [9]) came to 100%; with Avena fatua (AVEFA) (setting [10]) it was 90%.

(Values after US10206394B2, “Herbicidal compounds” (Syngenta Participations AG, priority 2014, dated 2019).)
